Reference: US7226923B2, “Phthalazinone derivatives” (Hoffman-La Roche Inc., priority 2004, dated 2007)

What follows are compounds tested against T1, Aurora A (Homo sapiens, UniProt O14965) (assay: IC50 determination for inhibitors of Aurora A (96 MTP-ELISA)). Settings: His4-tagged full-length Aurora A 250 ng/ml, PKB-GSK2 200 nM, ATP 4 μM, 90 min at room temperature, read-out: IC50 Aurora A kinase inhibition.
T1 construct: C-terminally Histidine4 (His4)-tagged Aurora A full-length protein
T1 sequence (O14965 1-403): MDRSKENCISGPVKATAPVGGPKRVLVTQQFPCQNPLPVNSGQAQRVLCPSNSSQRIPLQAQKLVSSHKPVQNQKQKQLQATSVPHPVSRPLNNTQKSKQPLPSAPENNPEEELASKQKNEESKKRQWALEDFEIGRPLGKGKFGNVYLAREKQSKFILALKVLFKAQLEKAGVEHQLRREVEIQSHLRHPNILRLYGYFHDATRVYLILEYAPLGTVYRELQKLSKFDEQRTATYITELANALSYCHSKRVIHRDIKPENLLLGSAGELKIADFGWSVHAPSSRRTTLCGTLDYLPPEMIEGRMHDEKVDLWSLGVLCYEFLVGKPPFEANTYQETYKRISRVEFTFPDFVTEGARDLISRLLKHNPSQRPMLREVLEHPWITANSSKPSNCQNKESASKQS
Format: biochemical
Procedure: IC50 Determination for Inhibitors of Aurora A
• Aurora A is a serine threonine kinase involved in spindle assembly and chromosome segregation.
The assay is a typically ELISA-type assay where biotinylated substrate (PKB-GSK2) is phosphorylated. Phosphorylation is detected by peroxidase (POD) labelled polyclonal antibody (PAK<M-Ig>S-IgG-POD) and phosphopeptide monoclonal antibody (Mab) (MAK<P-GSK>M-27E5-IgG). The assay is validated for IC50-determination.
Method • This assay is performed in 96-well format for IC50 determination with 5 samples (each with 8 concentrations by twofold testing), 100 μl incubation volume and the following plate layout: […]

`Cc1cc(Nc2nn(-c3ccc(F)cc3)c(=O)c3ccccc23)n[nH]1` [Example A-7, 2-(4-Fluoro-phenyl)-4-(5-methyl-1H-pyrazol-3-ylamino)-2H-phthalazin-1-one] and `COc1ccc(-n2nc(Nc3cc(C)[nH]n3)c3ccccc3c2=O)cc1` [Example A-9, 2-(4-Methoxy-phenyl)-4-(5-methyl-1H-pyrazol-3-ylamino)-2H-phthalazin-1-one] fall in the same range of IC50: 0.001 to 0.1 µM for the first, 0.001 to 0.1 µM for the second.

`Cc1ccc(-n2nc(Nc3cc[nH]n3)c3ccccc3c2=O)cc1` [Example A-10, 4-(1H-Pyrazol-3-ylamino)-2-p-tolyl-2H-phthalazin-1-one] and `CC(=O)Nc1ccc(-n2nc(Nc3cc(C)[nH]n3)c3ccccc3c2=O)cc1` [Example T-1, N-{4-[4-(5-Methyl-1H-pyrazol-3-ylamino)-1-oxo-1H-phthalazin-2-yl]-phenyl}-acetamide] fall in the same range of IC50: 0.1 to 1 µM for the first, 0.1 to 1 µM for the second.

`COc1ccc(Cn2nc(Nc3cc(C)[nH]n3)c3ccccc3c2=O)cc1` [Example A-11, 2-(4-Methoxy-benzyl)-4-(5-methyl-1H-pyrazol-3-ylamino)-2H-phthalazin-1-one] and `COc1ccc2c(Nc3cc(C)[nH]n3)nn(Cc3ccccc3)c(=O)c2c1` [Example G-8, 2-Benzyl-7-methoxy-4-(5-methyl-1H-pyrazol-3-ylamino)-2H-phthalazin-1-one] fall in the same range of IC50: 0.001 to 0.1 µM for the first, 0.001 to 0.1 µM for the second.

`Cc1cc(Nc2nn(Cc3ccc(S(C)(=O)=O)cc3)c(=O)c3ccccc23)[nH]n1` [Example A-14, 2-(4-Methanesulfonyl-benzyl)-4-(5-methyl-2H-pyrazol-3-ylamino)-2H-phthalazin-1-one] and `Cc1cc(Nc2nn(Cc3cccnc3)c(=O)c3ccccc23)[nH]n1` [Example A-18, 4-(5-Methyl-2H-pyrazol-3-ylamino)-2-pyridin-3-ylmethyl-2H-phthalazin-1-one] fall in the same range of IC50: 0.001 to 0.1 µM for the first, 0.001 to 0.1 µM for the second.

`Cc1cc(Nc2nn(C(C)C)c(=O)c3ccccc23)n[nH]1` [Example A-23, 2-Isopropyl-4-(5-methyl-1H-pyrazol-3-ylamino)-2H-phthalazin-1-one] and `CNc1ccc2c(Nc3cc(C)[nH]n3)nn(C(C)C)c(=O)c2c1` [Example I-12, 2-Isopropyl-7-methylamino-4-(5-methyl-1H-pyrazol-3-ylamino)-2H-phthalazin-1-one] fall in the same range of IC50: 0.001 to 0.1 µM for the first, 0.001 to 0.1 µM for the second.

`Cc1cc(Nc2nn(Cc3cccc(C(=O)O)c3)c(=O)c3ccccc23)n[nH]1` [Example A-24, 3-[4-(5-Methyl-1H-pyrazol-3-ylamino)-1-oxo-1H-phthalazin-2-ylmethyl]-benzoic acid] and `COc1ccc(C(=O)Cn2nc(Nc3cc(C)[nH]n3)c3ccccc3c2=O)cc1` [Example E-4, 2-[2-(4-Methoxy-phenyl)-2-oxo-ethyl]-4-(5-methyl-1H-pyrazol-3-ylamino)-2H-phthalazin-1-one] fall in the same range of IC50: 0.001 to 0.1 µM for the first, 0.001 to 0.1 µM for the second.

First: CC(=O)Nc1ccc(Cn2nc(Nc3cc[nH]n3)c3ccccc3c2=O)cc1 [Example D-2, N-{4-[1-Oxo-4-(1H-pyrazol-3-ylamino)-1H-phthalazin-2-ylmethyl]-phenyl}-acetamide]
Second: CCOC(=O)Nc1ccc(-n2nc(Nc3cc(C)[nH]n3)c3ccccc3c2=O)cc1 [Example Y-2, {4-[4-(5-Methyl-1H-pyrazol-3-ylamino)-1-oxo-1H-phthalazin-2-yl]-phenyl}-carbamic acid ethyl ester]
The IC50 of the first is higher: 0.555 µM for the first, 0.001 to 0.1 µM for the second.

First: Cc1cc(Nc2nn(C(C)C)c(=O)c3cc(N(C)C)ccc23)n[nH]1 [Example F-6, 2-Isopropyl-4-(5-methyl-1H-pyrazol-3-ylamino)-7-dimethylamino-2H-phthalazin-1-one]
Second: Cc1cc(Nc2nn(C(C)C)c(=O)c3ccc(N(C)C)cc23)n[nH]1 [Example F-7, 2-Isopropyl-4-(5-methyl-1H-pyrazol-3-ylamino)-6-dimethylamino-2H-phthalazin-1-one]
The IC50 of the first is lower: 0.001 to 0.1 µM for the first, 0.1 to 1 µM for the second. The first is the more potent here.

`Cc1cc(Nc2nn(C(C)C)c(=O)c3cc(S(C)(=O)=O)ccc23)n[nH]1` [Example H-2, 2-Isopropyl-7-methanesulfonyl-4-(5-methyl-1H-pyrazol-3-ylamino)-2H-phthalazin-1-one] and `Cc1cc(Nc2nn(C(C)C)c(=O)c3cc(C(=O)O)ccc23)n[nH]1` [Example M-1, 3-Isopropyl-1-(5-methyl-1H-pyrazol-3-ylamino)-4-oxo-3,4-dihydro-phthalazine-6-carboxylic acid] fall in the same range of IC50: 0.001 to 0.1 µM for the first, 0.001 to 0.1 µM for the second.

`Cc1cc(Nc2nn(C(C)C)c(=O)c3cc(N(C)Cc4ccncc4)ccc23)n[nH]1` [Example I-2, 2-Isopropyl-4-(5-methyl-1H-pyrazol-3-ylamino)-7-(methyl-pyridin-4-ylmethyl-amino)-2H-phthalazin-1-one] and `CC(=O)N(C)c1ccc2c(Nc3cc(C)[nH]n3)nn(C(C)C)c(=O)c2c1` [Example I-5, N-[3-Isopropyl-1-(5-methyl-1H-pyrazol-3-ylamino)-4-oxo-3,4-dihydro-phthalazin-6-yl]-N-methyl-acetamide] fall in the same range of IC50: 0.001 to 0.1 µM for the first, 0.001 to 0.1 µM for the second.

`Cc1cc(Nc2nn(C(C)C)c(=O)c3cc(NCCN4CCOCC4)ccc23)n[nH]1` [Example I-11, 2-Isopropyl-4-(5-methyl-1H-pyrazol-3-ylamino)-7-(2-morpholin-4-yl-ethylamino)-2H-phthalazin-1-one] and `Cc1cc(Nc2nn(C(C)C)c(=O)c3cc(CN4CCN(C)CC4)ccc23)n[nH]1` [Example L-1, 2-Isopropyl-7-(4-methyl-piperazin-1-ylmethyl)-4-(5-methyl-1H-pyrazol-3-ylamino)-2H-phthalazin-1-one] fall in the same range of IC50: 0.001 to 0.1 µM for the first, 0.001 to 0.1 µM for the second.

First: CONC(=O)c1ccc2c(Nc3cc(C)[nH]n3)nn(C(C)C)c(=O)c2c1 [Example M-4, 3-Isopropyl-1-(5-methyl-1H-pyrazol-3-ylamino)-4-oxo-3,4-dihydro-phthalazine-6-carboxylic acid methoxy-amide]
Second: COCC(C)n1nc(Nc2cc(C)n[nH]2)c2ccccc2c1=O (centres unmarked) [Example O-2, 2-(2-Methoxy-1-methyl-ethyl)-4-(5-methyl-2H-pyrazol-3-ylamino)-2H-phthalazin-1-one]
The IC50 of the first is lower: 0.001 to 0.1 µM for the first, 0.1 to 1 µM for the second. The first is the more potent here.

`Cc1cc(Nc2nn(-c3ccc(-c4ccccc4C)cc3)c(=O)c3ccccc23)n[nH]1` [Example Q-2, 2-(2′-Methyl-biphenyl-4-yl)-4-(5-methyl-1H-pyrazol-3-ylamino)-2H-phthalazin-1-one] and `Cc1cc(Nc2nn(-c3ccc4ccccc4c3)c(=O)c3ccccc23)n[nH]1` [Example R-3, 4-(5-Methyl-1H-pyrazol-3-ylamino)-2-naphthalen-2-yl-2H-phthalazin-1-one] fall in the same range of IC50: 0.001 to 0.1 µM for the first, 0.001 to 0.1 µM for the second.

`Cc1cc(Nc2nn(-c3ccc(NS(C)(=O)=O)cc3)c(=O)c3ccccc23)n[nH]1` [Example T-5, N-{4-[4-(5-Methyl-1H-pyrazol-3-ylamino)-1-oxo-1H-phthalazin-2-yl]-phenyl}-methanesulfonamide] and `Cc1cc(Nc2nn(-c3cccc(C(C)(C)C)c3)c(=O)c3ccccc23)n[nH]1` [Example X-2, 2-(3-tert-Butyl-phenyl)-4-(5-methyl-1H-pyrazol-3-ylamino)-2H-phthalazin-1-one] fall in the same range of IC50: 0.001 to 0.1 µM for the first, 0.001 to 0.1 µM for the second.

With `Cc1cc(Nc2nn(-c3ccc(C(F)(F)F)cc3Cl)c(=O)c3ccccc23)n[nH]1` [Example W-1, 2-(2-Chloro-4-trifluoromethyl-phenyl)-4-(5-methyl-1H-pyrazol-3-ylamino)-2H-phthalazin-1-one] the IC50 was 0.1 to 1 µM.
